Results taken from patent US6818407B2, “Anti-endotoxic antimicrobial cationic peptides and methods of use therfor” (priority 1998, dated 2004).
Ends that are not written are not given here.

Key:
[1] = test system: Aeromonas salmonicida (As); assay type: cell-based; conditions: Mueller Hinton Broth
Description: (§1) The biological activity of the peptides can be determined by standard methods known to those of skill in the art, such as Aminimal inhibitory concentration (MIC)≅ assay described in the present examples, whereby the lowest concentration at which no change in OD is observed for a given period of time is recorded as MIC. Alternatively, Afractional inhibitory concentration (FIC)≅ is also useful for determination of synergy between the peptides of the invention, or the peptides in combination with known antibiotics. FICs are performed by checkerboard titrations of peptides in one dimension of a microtiter plate, and of antibiotics in the other dimension, for example. The FIC is calculated by looking at the impact of one antibiotic on the MIC of the other and vice versa. […] Preferably, an FIC of less than 0.5 is obtained for synergism. As used herein, FIC can be determined as follows: [formula]
(§2) These peptides varied in activity (Table 11), however, the C-terminally capped pleurocidin especially and its N-terminally capped lysine derivative had much better activities against a variety of bacteria including Vibrio anguillarum (Va), Aeromonas salmonicida (As), Staphylococcus epidermidis (C621), Salmonella typhimurium wild type (C587) and phoP phoQ mutant (C610), and Pseudomonas aeruginosa wild type (K799) and outer membrane barrier altered (Z61). The antimicrobial peptide CEME, a fusion peptide made from portions of an insect defensin ceropin A and the bee venom peptide melittin (Piers and Hancock, Mol. Microbiol., 12:951-8, 1994), as well as the known antibiotics polymyxin B and gentamicin were used as controls. Replacing the pleurocidin N-terminus with the dermaseptin N-terminus had no effect. Replacing pleurocidin N-terminus with the ceratoxin N-terminus reduced activity. […] Amidating the C-terminus improved antimicrobial activity. Replacing the pleurocidin C-terminus with the misgurin C-terminus had no effect.
(§3) Bacteria included Vibrio anguillarum (Va), Aeromonas salmonicida (As), Staphylococcus epidermidis (C621), Salmonella typhimurium wild type (C587) and phoP phoQ mutant (C6 10), and Pseudomonas aeruginosa wild type (K799) and outer membrane barrier altered (Z61).

[2] = test system: Pseudomonas aeruginosa outer membrane barrier altered (Z61); assay type: cell-based; conditions: Mueller Hinton Broth
Description: as §1, §2, §3

[3] = test system: Pseudomonas aeruginosa wild type (K799); assay type: cell-based; conditions: Mueller Hinton Broth
Description: as §1, §2, §3

[4] = test system: Salmonella typhimurium phoP phoQ mutant (C610); assay type: cell-based; conditions: Mueller Hinton Broth
Description: as §1, §2, §3

[5] = test system: Salmonella typhimurium wild type (C587); assay type: cell-based; conditions: Mueller Hinton Broth
Description: as §1, §2, §3

[6] = test system: Staphylococcus epidermidis (C621); assay type: cell-based; conditions: Mueller Hinton Broth
Description: as §1, §2, §3

[7] = test system: Vibrio anguillarum (Va); assay type: cell-based; conditions: Mueller Hinton Broth
Description: as §1, §2, §3

[8] = test system: E. coli; test: MIC, broth microdilution assay in polypropylene microtiter trays; assay type: cell-based; conditions: average of three separate experiments
Description: as §1
(§4) A method which employed polypropylene microtiter trays in a broth microdilution assay was developed.

[9] = test system: P. aeruginosa; test: as above; assay type: cell-based; conditions: average of three separate experiments
Description: as §1, §4

[10] = test system: S. aureus K147; test: as above; assay type: cell-based; conditions: average of three separate experiments
Description: as §1, §4

[11] = test system: S. aureus; test: as above; assay type: cell-based; conditions: average of three separate experiments
Description: as §1, §4

[12] = test system: P. aeruginosa efflux mutant (Nal B, H744); test: microbe, parasite or virus in culture; assay type: cell-based
Description: as §1
(§5) To test whether the peptides of the invention synergize with various antibiotics, the following method was employed. Fractional Inhibitory Concentration (FIC) was used to determine synergy of peptides combined with antibiotics (e.g., carbenicillin/ciprofloxacin) against Pseudomonas aeruginosa. The following methodology was followed:
(§6) (1) Determination of MIC of cationic peptides (MIC A):
(§7) 100 μl Mueller Hinton broth (MHB) was added per well
(§8) 12.5 μl of 10× test concentration peptide was added per well to get final peptide concentration of e.g., 128, 64, 32, . . . 0.025 μg/ml from row 1 to 11;
(§9) 10 μl of 10^−4 dilution of overnight bacterial culture was added per well.
(§10) (2) Determination of MIC of Carbenicillin/Ciprofloxacin (MIC B):
(§11) 100 μl MHB was added per well;
(§12) 100 μl of 2× test concentration of antibiotic was added in the first well of the row, and doubling dilutions performed across the plate from column 1 to 11;
(§13) (3) Determination of MIC of antibiotics (B) when combined with peptides at concentration A:
(§14) 100 μl Carbenicillin (512 μg/ml) or Ciprofloxacin (8 μg/ml) was added in each well of column 1; doubling dilutions were performed across the plate;
(§15) 100 μl of the peptide was added in all wells of row 1, mixed, and 100 μl withdrawn and added to row 2, etc., creating a checkerboard titration.
(§16) 10 μl of 10^−4 dilution of overnight culture was added per well;
(§17) plates were incubated at 37EC for 18-24 hours. Combination MIC values A and B were taken as the lowest concentration of drug that reduced bacterial growth by more than 50% in any given column.
(§18) (4) FIC index=FICA+FICB=(A)/MIC A+(B)/MIC B. An FIC index of approximately 0.5 or less indicates synergy; 1.0 reflects additivity; and >1.0 indicates antagonism.

[13] = test system: mutant (Nal B, H744) of P. aeruginosa; test: microbe, parasite or virus in culture; assay type: cell-based
Description: as §1, §5, §6, §7, §8, §9, §10, §11, §12, §13, §14, §15, §16, §17, §18

[14] = test system: β-lactamase derepressed mutant (H547) of P. aeruginosa; test: microbe, parasite or virus in culture; assay type: cell-based; conditions: P. aeruginosa H547
Description: as §1, §5, §6, §7, §8, §9, §10, §11, §12, §13, §14, §15, §16, §17, §18

[15] = test system: P. aeruginosa gyrase mutant (Nal A, H374); assay type: cell-based
Description: as §1, §5, §6, §7, §8, §9, §10, §11, §12, §13, §14, §15, §16, §17, §18

[16] = test system: E. coli; test: Synergy study (checkerboard titration) with hen white lysozyme; assay type: cell-based
Description: as §1

[17] = test system: P. aeruginosa (H103); test: as above; assay type: cell-based
Description: as §1

[18] = test system: Salmonella typhi; test: as above; assay type: cell-based
Description: as §1

[19] = test system: Pseudomonas aeruginosa strain M2; test: Protection of neutropenic CD-1 mice challenged with Pseudomonas aeruginosa; assay type: in vivo; parameters: Survival post bacterial challenge, surviving mice: reference not given here; conditions: for Survival (%) post bacterial challenge: PBS 8
Description: CD-1 mice were induced to be neutropenic via 3 intraperitoneal injections of cyclophosphamide ([…]) every another day. Immediately after the third administration of cyclophosphamide, the mice were challenged by intraperitoneal injection of Pseudomonas aeruginosa strain M2 (200-300 organisms/mouse). Cationic peptides (200 µg per mouse=8 mg/kg) in 100 µl buffered citrate were injected intraperitoneally at 30 min (single dose) or 30 min and 16 hrs (double dose) post bacterial challenge, respectively. The data were the average values of 2 individual experiments. PBS was used as a control. […] In general single dose protection studies gave better protection than double dose experiments.

[20] = cationic peptide concentration, combined with lysozyme
[21] = lysozyme concentration, combined with the peptide

Q: SIGSAFKKAAHVGKHVGKAALTHYL-NH2 [P-CER] was tested. Which “MIC As” value [1] did it give?
A: 8 µg/mL

Q: And the “MIC Z61” value [2]?
A: >64 µg/mL

Q: And the “MIC K799” value [3]?
A: >64 µg/mL

Q: What about the “MIC C610” value [4] of the same molecule?
A: 2 µg/mL

Q: What about the “MIC C587” value [5] of the same molecule?
A: >64 µg/mL

Q: What about the “MIC C621” value [6] of the same molecule?
A: >64 µg/mL

Q: What about the “MIC Va” value [7] of the same molecule?
A: 64 µg/mL

Q: KWKSFIKKLTSAAKKVTTAAKPLTK [CPα1] was tested. Which “MIC E. coli” value [8] did it give?
A: 1.5 µg/mL

Q: And the “MIC P. aeruginosa” value [9]?
A: ≧64 μg/ml

Q: And the “MIC S. aureus K147” value [10]?
A: >64 µg/mL

Q: And the “MIC S. aureus” value [11]?
A: >64 µg/mL

Q: What about the “(B) MIC of Nal when combined with peptide” value ([12]; nalidixic acid with peptide at concentration (A), efflux mutant Nal B, H744, unit from method) of the same molecule?
A: 400 µg/mL

Q: And the FIC index ([12]; peptide + nalidixic acid, efflux mutant Nal B, H744)?
A: 0.38

Q: What about the “MIC A MIC of Peptides” value ([12]; peptide alone, P. aeruginosa efflux mutant Nal B, H744 (Table 6)) of the same molecule?
A: 8 µg/mL

Q: What about the “(A) Peptide doses together with Nal” value ([12]; peptide concentration in combination with nalidixic acid, efflux mutant Nal B, H744) of the same molecule?
A: 1 µg/mL

Q: And the “(B) MIC of Cipro when combined with peptide” value ([13]; ciprofloxacin with peptide at concentration (A), Nal B, H744)?
A: .125 µg/mL

Q: What about the FIC index ([13]; peptide + ciprofloxacin, Nal B, H744) of the same molecule?
A: .63

Q: And the “MIC A MIC of Peptides” value ([13]; peptide alone, P. aeruginosa mutant Nal B, H744 (Table 5))?
A: 8 µg/mL

Q: And the “(A) Peptide doses together with Cipro” value ([13]; peptide concentration in combination with ciprofloxacin, Nal B, H744)?
A: 1 µg/mL

Q: And the “(B) MIC of Carb when combined with peptide” value ([14]; Carbenicillin with peptide at concentration (A))?
A: 32 µg/mL

Q: And the FIC index ([14]; peptide + Carbenicillin, about 0.5 or less synergy, 1.0 additivity, >1.0 antagonism)?
A: 0.75

Q: And the “MIC A MIC of Peptides” value ([14]; peptide alone)?
A: 16 µg/mL

Q: And the “(A) Peptide doses together with Carb” value ([14]; peptide concentration in combination with Carbenicillin)?
A: 4 µg/mL

Q: And the “(B) MIC of Nal when combined with peptide” value ([15]; nalidixic acid with peptide at concentration (A), Nal A, unit from method)?
A: 800 µg/mL

Q: And the FIC index ([15]; peptide + nalidixic acid, Nal A)?
A: 0.38

Q: What about the “MIC A MIC of Peptides” value ([15]; peptide alone, P. aeruginosa gyrase mutant Nal A) of the same molecule?
A: 8 µg/mL

Q: And the “(A) Peptide doses together with Nal” value ([15]; peptide concentration in combination with nalidixic acid, Nal A)?
A: 1 µg/mL

Q: What about the “FIC for combination of cationic peptide and lysozyme” value (“FIC for combination” for short) [16] of the same molecule?
A: 0.31

Q: And the “Lowest [CP] showing synergy” value [16, 20]?
A: 0.65 µg/mL

Q: What about the “Lowest [Lyso] showing synergy” value [16, 21] of the same molecule?
A: 7.8 µg/mL

Q: And the “FIC for combination” value [17]?
A: 0.28

Q: And the “Lowest [CP] showing synergy” value [17, 20]?
A: 5.21 µg/mL

Q: What about the “Lowest [Lyso] showing synergy” value [17, 21] of the same molecule?
A: 7.8 µg/mL

Q: What about the “FIC for combination” value [18] of the same molecule?
A: 0.63

Q: And the “Lowest [CP] showing synergy” value [18, 20]?
A: 41.7 µg/mL

Q: And the “Lowest [Lyso] showing synergy” value [18, 21]?
A: 125 µg/mL

Q: `O=C(O)c1cn(C2CC2)c2cc(N3CCNCC3)c(F)cc2c1=O` [Cipro, ciprofloxacin, reference compound] was tested. Which MIC ([13]; Pseudomonas aeruginosa, read-out: MIC B MIC of Cipro) did it give?
A: 0.25 µg/mL

Q: Which “Survival post bacterial challenge, surviving mice” value (from here on “Survival post bacterial challenge”) ([19]; single dose (200 μg per mouse i.p. at 30 min), 16 hr) does the source give for “KWKSFIKKLTSAAKKVVTTAKPLISS (H-KWKSFIKKLTSAAKKVVTTAKPLISS-OH) [CP26, reference compound]” here?
A: 8

Q: What about the “Survival post bacterial challenge” value ([19]; single dose, 24 hr) of the same molecule?
A: 8

Q: What about the “Survival post bacterial challenge” value ([19]; single dose, 41 hr) of the same molecule?
A: 6

Q: What about the “Survival post bacterial challenge” value ([19]; single dose, 48 hr) of the same molecule?
A: 4

Q: And the “Survival post bacterial challenge” value ([19]; single dose, 64 hr)?
A: 3

Q: And the “Survival (%) post bacterial challenge” value ([19]; single dose, 64 hr)?
A: 37%

Q: And the “Survival post bacterial challenge” value ([19]; single dose, 72 hr)?
A: 3

Q: What about the “Survival (%) post bacterial challenge” value ([19]; single dose, 72 hr) of the same molecule?
A: 37%

Q: And the “Survival post bacterial challenge” value ([19]; single dose, 96 hr)?
A: 3

Q: And the “Survival (%) post bacterial challenge” value ([19]; single dose, 96 hr)?
A: 37%

Q: Which results are given for polymyxin B [reference compound]?
A: MIC As [1]: <0.5 µg/mL; MIC Z61 [2]: <0.5 µg/mL; MIC K799 [3]: <0.5 µg/mL; MIC C610 [4]: <0.5 µg/mL; MIC C587 [5]: <0.5 µg/mL; MIC C621 [6]: 16 µg/mL; MIC Va [7]: 16 µg/mL

Q: What does the source list for “KGWGSFFKKAAHVGKHVGKAALTHYL [Peptide P-1]”?
A: MIC As [1]: 2 µg/mL; MIC Z61 [2]: 8 µg/mL; MIC K799 [3]: 32 µg/mL; MIC C610 [4]: <0.5 µg/mL; MIC C587 [5]: 16 µg/mL; MIC C621 [6]: 64 µg/mL; MIC Va [7]: 16 µg/mL
